ChEMBL document CHEMBL1153270, “Fluoroalkyl alpha side chain containing 3,4-diamino-cyclobutenediones as potent and orally bioavailable CXCR2-CXCR1 dual antagonists” (Bioorg Med Chem Lett, 2009)

What was measured:
[1] = AUC in po dosed rat; type: ADME, organism-based; conditions: plasma
[2] = target: T1, C-X-C chemokine receptor type 2 (Homo sapiens, UniProt P25025); test: Binding affinity to CXCR2
T1 sequence (P25025 whole entry): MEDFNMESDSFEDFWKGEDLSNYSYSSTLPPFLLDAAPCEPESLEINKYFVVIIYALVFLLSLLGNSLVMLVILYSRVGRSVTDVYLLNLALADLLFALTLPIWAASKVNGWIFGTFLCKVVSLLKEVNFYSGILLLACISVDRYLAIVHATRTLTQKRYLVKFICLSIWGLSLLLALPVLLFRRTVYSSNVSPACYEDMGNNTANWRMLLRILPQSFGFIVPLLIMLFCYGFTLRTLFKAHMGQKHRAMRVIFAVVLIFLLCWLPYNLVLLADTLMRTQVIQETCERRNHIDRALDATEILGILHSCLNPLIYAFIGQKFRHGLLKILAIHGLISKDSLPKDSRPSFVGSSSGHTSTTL

[3] = target: T2, C-X-C chemokine receptor type 1 (Homo sapiens, UniProt P25024); test: Binding affinity to CXCR1
T2 sequence (P25024 whole entry): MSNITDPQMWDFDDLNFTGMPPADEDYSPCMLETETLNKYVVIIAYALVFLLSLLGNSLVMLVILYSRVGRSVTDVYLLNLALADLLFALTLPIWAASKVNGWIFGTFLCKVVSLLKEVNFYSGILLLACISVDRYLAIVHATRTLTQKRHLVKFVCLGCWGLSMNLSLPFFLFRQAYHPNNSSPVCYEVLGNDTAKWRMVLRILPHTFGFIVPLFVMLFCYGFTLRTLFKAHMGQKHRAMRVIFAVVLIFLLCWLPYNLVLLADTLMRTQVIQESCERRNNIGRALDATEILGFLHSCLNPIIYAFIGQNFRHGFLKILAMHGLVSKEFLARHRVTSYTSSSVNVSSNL

SMILES	AUC [1] [µM·h]	Ki [2] [nM]	Ki [3] [nM]
CN(C)C(=O)c1cccc(Nc2c(N[C@@H](c3ccccc3)C(F)(F)F)c(=O)c2=O)c1O	–	14	40
CN(C)C(=O)c1cccc(Nc2c(N[C@H](CC(F)(F)F)c3ccco3)c(=O)c2=O)c1O	–	5	100
CN(C)C(=O)c1cccc(Nc2c(N[C@H](CCC(F)(F)F)c3ccco3)c(=O)c2=O)c1O	–	400	–
CN(C)C(=O)c1cccc(Nc2c(N[C@@H](c3cc(Cl)co3)C(F)(F)F)c(=O)c2=O)c1O	–	5	20
Cc1ccc([C@H](Nc2c(Nc3cccc(C(=O)N(C)C)c3O)c(=O)c2=O)C(C)(F)F)o1	3	10	6
Cc1ccc([C@H](Nc2c(Nc3cccc(C(=O)N(C)C)c3O)c(=O)c2=O)[C@H](C)F)o1	3.6	13	16
Cc1coc([C@H](Nc2c(Nc3cccc(C(=O)N(C)C)c3O)c(=O)c2=O)[C@H](C)F)c1	3.6	4	5
CN(C)C(=O)c1cccc(Nc2c(N[C@@H](c3ccc4c(c3)OCO4)C(F)(F)F)c(=O)c2=O)c1O	9.17	5	8
CCC(F)(F)[C@@H](Nc1c(Nc2cccc(C(=O)N(C)C)c2O)c(=O)c1=O)c1ccc(C)o1	–	5	22
CC(C)c1coc([C@H](Nc2c(Nc3cccc(C(=O)N(C)C)c3O)c(=O)c2=O)C(C)(F)F)c1	–	2	25
Cc1coc([C@H](Nc2c(Nc3cccc(C(=O)N(C)C)c3O)c(=O)c2=O)C(C)(F)F)c1	–	14	6
CC[C@@H](Nc1c(Nc2cccc(C(=O)N(C)C)c2O)c(=O)c1=O)c1ccc(C)o1 [NAVARIXIN ANHYDROUS]	49	–	–

Second part, the molecule after the results:

AUC [1] [µM·h]	Ki [2] [nM]	Ki [3] [nM]	SMILES
17.4	4	40	CC[C@@H](Nc1c(Nc2cccc(C(=O)N(C)C)c2O)c(=O)c1=O)c1ccccc1
–	7	43	C[C@H](F)[C@@H](Nc1c(Nc2cccc(C(=O)N(C)C)c2O)c(=O)c1=O)c1ccco1
–	2	6	CN(C)C(=O)c1cccc(Nc2c(N[C@@H](c3ccco3)C(F)(F)F)c(=O)c2=O)c1O
–	7	34	CN(C)C(=O)c1cccc(Nc2c(N[C@@H](c3ccc(Cl)o3)C(F)(F)F)c(=O)c2=O)c1O
–	9	–	C=CC(F)(F)[C@@H](Nc1c(Nc2cccc(C(=O)N(C)C)c2O)c(=O)c1=O)c1ccc(C)o1
–	8	24	Cc1ccc([C@H](Nc2c(Nc3cccc(C(=O)N(C)C)c3O)c(=O)c2=O)C(C)(C)F)o1
–	12	30	Cc1ccoc1[C@H](Nc1c(Nc2cccc(C(=O)N(C)C)c2O)c(=O)c1=O)C(C)(F)F
19.8	5	9	Cc1ccc([C@H](Nc2c(Nc3cccc(C(=O)N(C)C)c3O)c(=O)c2=O)C(F)(F)F)o1
–	4	10	Cc1ccc([C@H](Nc2c(Nc3cccc(C(=O)N(C)C)c3O)c(=O)c2=O)C(F)(F)C(F)(F)F)o1
–	5	103	CN(C)C(=O)c1cccc(Nc2c(N[C@@H](c3cc(Cl)c(Cl)o3)C(F)(F)F)c(=O)c2=O)c1O
